# According to article PMC9147192, “Small Molecule Arranged Thermal Proximity Coaggregation (smarTPCA)—A Novel Approach to Characterize Protein–Protein Interactions in Living Cells by Similar Isothermal Dose–Responses” (International Journal of Molecular Sciences, 2022):
# pEC50: −log10 of the molar value.
# Legend:
# OGDH = target: T1, OGDH (Homo sapiens, UniProt Q02218); test: TPP-CCR in living HL-60 cells; type: cell-based
# T1 construct: endogenous in cells; host or cells: HL-60 (ATCC CCL-240)
# T1 sequence (Q02218 41-1023): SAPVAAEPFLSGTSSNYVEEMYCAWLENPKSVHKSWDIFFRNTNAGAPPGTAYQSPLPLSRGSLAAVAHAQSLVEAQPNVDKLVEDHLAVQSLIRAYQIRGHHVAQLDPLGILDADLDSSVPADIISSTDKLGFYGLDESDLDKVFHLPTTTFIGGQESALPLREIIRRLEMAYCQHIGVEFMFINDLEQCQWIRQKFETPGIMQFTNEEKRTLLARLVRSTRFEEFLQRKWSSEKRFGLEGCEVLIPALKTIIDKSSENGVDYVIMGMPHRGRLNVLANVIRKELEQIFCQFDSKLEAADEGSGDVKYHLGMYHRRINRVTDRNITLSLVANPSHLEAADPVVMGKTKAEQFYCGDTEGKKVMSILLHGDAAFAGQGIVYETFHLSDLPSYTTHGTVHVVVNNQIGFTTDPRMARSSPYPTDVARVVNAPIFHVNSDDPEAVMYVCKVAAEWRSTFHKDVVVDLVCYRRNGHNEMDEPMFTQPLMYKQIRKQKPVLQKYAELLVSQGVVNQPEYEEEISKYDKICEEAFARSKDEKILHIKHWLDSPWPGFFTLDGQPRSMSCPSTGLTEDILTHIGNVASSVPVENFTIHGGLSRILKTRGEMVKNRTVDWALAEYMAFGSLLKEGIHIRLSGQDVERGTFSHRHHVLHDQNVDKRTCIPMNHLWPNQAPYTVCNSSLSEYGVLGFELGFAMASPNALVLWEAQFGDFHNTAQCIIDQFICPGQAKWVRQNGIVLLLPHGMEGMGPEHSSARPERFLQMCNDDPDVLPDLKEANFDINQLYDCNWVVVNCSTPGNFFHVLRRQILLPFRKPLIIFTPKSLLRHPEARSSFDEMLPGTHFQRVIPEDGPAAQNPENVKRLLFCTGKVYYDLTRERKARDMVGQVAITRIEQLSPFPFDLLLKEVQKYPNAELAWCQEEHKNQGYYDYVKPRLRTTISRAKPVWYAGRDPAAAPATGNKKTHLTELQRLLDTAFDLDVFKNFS
# Excerpt: (§1) Therefore, we performed TPP with compound concentration range (TPP-CCR) experiments according to published procedures. In brief, after preparing tryptic peptides from the non-denatured protein fractions (used for immunoblotting in the previous sections) applying the SP3 method, the peptides were labeled using TMT10plex, coding for inhibitor concentration, and the samples belonging to a TMT set were combined, offline high-pH fractionated, and analyzed by MS.
# (§2) HL-60 cells were expanded as described above for CETSA and TPP-TR to 1.25 million cells per milliliter. […] A number of 2.5 million cells in 2 mL of medium were added to each tube and incubated (1 h, 37 °C). After centrifugation (300 rcf, 3 min, r.t.) and removing all of the supernating culture medium, the cells were washed once with 2 mL and once with 0.5 mL PBS (r.t.) by gently resuspending the cells, followed by centrifugation (300 rcf, 3 min, r.t.) and the complete removal of the supernatants.
# (§3) After transferring the cells from the 2 mL Eppendorf tubes into correspondingly labeled PCR tubes (tube strips) using 100 µL of ice-cold PBS supplemented with protease inhibitors for resuspending the cells, the samples were further processed as described above for CETSA and TPP-TR, however, by applying a single treatment temperature of 51 °C.
# (§4) For each sample set comprising ten compound concentration range samples, a same volume of the cell extracts containing the fraction of soluble, non-denatured proteins, corresponding to an average of 5 µg total protein, was used for further analysis. The calculated volume was respectively transferred into PCR tubes of a tube strip and supplemented with SDS sample buffer without DTT and bromophenol blue (final concentrations: 7.5% glycerol, 3% SDS, 37.5 mM Tris/HCl pH 7.0) and ddH2O to a final volume of 10 µL, respectively. Reduction and alkylation were performed by addition of 2.5 µL 100 mM dithiothreitol (DTT; incubation: 20 min, 56 °C, 1000 rpm in an Eppendorf ThermoMixer C, covering the tubes with aluminum foil to minimize condensation in the lids) and 3.33 µL 300 mM iodoacetamide (IAA; incubation: 15 min, r.t., in the dark without shaking), as well as 2.5 µL 100 mM DTT (incubation: 15 min, r.t., without shaking; quenching of excess of IAA). […] The beads were collected and washed (3× 200 µL 80% ethanol p.a. in HPLC-MS grade water, 1 × 200 µL acetonitrile (ACN; HPLC gradient grade)) using a device for handling of magnetic particles [patent US20100200405A1]. The ACN of the last washing step was completely removed by aspiration without letting the beads dry out.
# (§5) Tryptic digest was performed on-bead by resuspending (use of an ultrasound bath may be required) the beads in 20 µL 50 mM TEAB in HPLC-MS grade water containing 0.1 µg Trypsin/Lys-C mix and 16.5 h incubation at 37 °C and 1000 rpm (Eppendorf ThermoMixer C, covering the tubes with aluminum foil to minimize condensation in the lids). Tryptic fragmentation of proteins was optimized by addition of another 0.1 µg of Trypsin/Lys-C mix in 2 µL 50 mM TEAB and 4 h incubation at 37 °C and 1000 rpm. After centrifugation for about 1 min in a table top centrifuge and magnetic concentration and retention of the beads at the inner tube wall, the supernatants containing the peptides were transferred into new PCR tubes (of tube strips) and were stored at −80 °C. The beads were discarded.
# (§6) Half of the peptide samples (11 µL containing about 2.5 µg peptides) were transferred into new PCR tubes (of tube strips) and allowed to equilibrate to r.t. TMT labeling reagents were reconstituted as described for the TPP-TR samples, and 1 µL each was added to the reconstituted peptides according to the following scheme and homogenized immediately by aspiration and dispensing:
# (§7) Peptide separation was performed as described above for the analysis of TPP-TR samples. […]
# LRRC59 = target: T2, LRRC59 (Homo sapiens, UniProt Q96AG4); test: TPP-CCR in living HL-60 cells; type: cell-based
# T2 construct: endogenous in cells; host or cells: HL-60 (ATCC CCL-240)
# T2 sequence (Q96AG4 1-307): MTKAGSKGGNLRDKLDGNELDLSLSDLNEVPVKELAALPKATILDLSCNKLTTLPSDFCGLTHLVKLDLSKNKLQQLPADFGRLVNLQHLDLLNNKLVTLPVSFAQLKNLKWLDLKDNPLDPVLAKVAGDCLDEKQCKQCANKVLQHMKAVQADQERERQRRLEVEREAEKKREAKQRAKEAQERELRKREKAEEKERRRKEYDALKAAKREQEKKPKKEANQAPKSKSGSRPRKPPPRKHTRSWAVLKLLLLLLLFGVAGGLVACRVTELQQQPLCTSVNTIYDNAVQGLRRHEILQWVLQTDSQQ
# Excerpt: as §1, §2, §3, §4, §5, §6, §7
# [1] = living HL-60 cells, […] °C, TMT-MS
structure (smiles),measurement,setting,value
Cc1cnc(Nc2ccc(F)cc2Cl)nc1-c1c[nH]c(C(=O)N[C@H](CO)c2cccc(Cl)c2)c1 [ERK 11e],Hill slope,"OGDH; TPP-CCR, living cells, OGDH",0.43
same,pEC50,OGDH; [1],6.38
same,Hill slope (OGDH),OGDH; [1],0.43
same,Hill slope,"LRRC59; TPP-CCR, living cells, LRRC59",0.59
same,Hill slope (LRRC59),LRRC59; [1],0.59
same,EC50,"LRRC59; living HL-60 cells, […] °C, TMT-MS, read-out: pEC50 (LRRC59) (converted)",1480 nM
